Experimental data reported in PubChem BioAssay AID256 (DTP/NCI, 2004).
Where “and” joins values, the source holds several entries; their conditions need not be identical. Equal values may be shown once. Inconclusive results and toxic doses are left out.

System: CD2F1 mice, L1210 leukemia ip, survival T/C
Experiment: NCI In Vivo Anticancer Drug Screen. Data for tumor model L1210 Leukemia (intraperitoneal) in CD2F1 (CDF1) mice
Conditions: higher = longer survival
Method in brief: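 Transplantable tumor in mice; compound-treated vs vehicle-treated groups. Read-out = treated/control ratio of the measured endpoint.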

## NC(=O)c1csc(C2OC(CO)C(O)C2O)n1 (stereo not drawn)
endpoint: mean survival time, dose: 12.5 mg/kg/injection, schedule: Q01DX005 (ip), vehicle: water
  T/C: 111 % of control
endpoint: mean survival time, dose: 25.0 mg/kg/injection, schedule: Q01DX005 (ip), vehicle: water
  T/C: 120 % of control
endpoint: mean survival time, dose: 25.0 mg/kg/injection, schedule: Q01DX009 (ip), vehicle: water
  T/C: 158 % of control and 162 % of control
endpoint: mean survival time, dose: 50.0 mg/kg/injection, schedule: Q01DX005 (ip), vehicle: water
  T/C: 152 % of control
endpoint: mean survival time, dose: 50.0 mg/kg/injection, schedule: Q01DX009 (ip), vehicle: water
  T/C: 166 % of control and 167 % of control
endpoint: mean survival time, dose: 100.0 mg/kg/injection, schedule: Q01DX009 (ip), vehicle: saline
  T/C: 183 % of control
endpoint: mean survival time, dose: 100.0 mg/kg/injection, schedule: Q01DX009 (ip), vehicle: water
  T/C: 182 % of control
endpoint: mean survival time, dose: 150.0 mg/kg/injection, schedule: Q01DX005 (ip), vehicle: water
  T/C: 150 % of control
endpoint: mean survival time, dose: 200.0 mg/kg/injection, schedule: Q01DX009 (ip), vehicle: saline
  T/C: 182 % of control
endpoint: mean survival time, dose: 200.0 mg/kg/injection, schedule: Q01DX009 (ip), vehicle: water
  T/C: 203 % of control and 219 % of control
endpoint: mean survival time, dose: 300.0 mg/kg/injection, schedule: Q01DX005 (ip), vehicle: water
  T/C: 155 % of control
endpoint: mean survival time, dose: 400.0 mg/kg/injection, schedule: Q01DX005 (ip), vehicle: water
  T/C: 191 % of control and 192 % of control and 216 % of control
endpoint: mean survival time, dose: 400.0 mg/kg/injection, schedule: Q01DX009 (ip), vehicle: saline
  T/C: 224 % of control
endpoint: mean survival time, dose: 400.0 mg/kg/injection, schedule: Q01DX009 (ip), vehicle: water
  T/C: 200 % of control and 229 % of control
endpoint: mean survival time, dose: 600.0 mg/kg/injection, schedule: Q01DX009 (ip), vehicle: saline
  T/C: 230 % of control
endpoint: mean survival time, dose: 800.0 mg/kg/injection, schedule: Q01DX005 (ip), vehicle: water
  T/C: 206 % of control and 247 % of control
endpoint: mean survival time, dose: 800.0 mg/kg/injection, schedule: Q01DX009 (ip), vehicle: saline
  T/C: 171 % of control
endpoint: mean survival time, dose: 800.0 mg/kg/injection, schedule: Q01DX009 (ip), vehicle: water
  T/C: 185 % of control
endpoint: median survival time, dose: 4.0 mg/kg/injection, schedule: Q03HX024 (ip), vehicle: water
  T/C: 150 % of control
endpoint: median survival time, dose: 8.0 mg/kg/injection, schedule: Q03HX024 (ip), vehicle: water
  T/C: 186 % of control
endpoint: median survival time, dose: 16.0 mg/kg/injection, schedule: Q03HX024 (ip), vehicle: water
  T/C: 168 % of control
endpoint: median survival time, dose: 16.0 mg/kg/injection, schedule: Q04DX003 (ip), vehicle: water
  T/C: 101 % of control
endpoint: median survival time, dose: 16.0 mg/kg/injection, schedule: Q#A X018 (ip), vehicle: water
  T/C: 174 % of control
endpoint: median survival time, dose: 22.25 mg/kg/injection, schedule: Q01DX005 (ip), vehicle: water
  T/C: 97 % of control
endpoint: median survival time, dose: 23.44 mg/kg/injection, schedule: Q01DX005 (ip), vehicle: water
  T/C: 98 % of control
endpoint: median survival time, dose: 32.0 mg/kg/injection, schedule: Q01DX001 (iv), vehicle: water
  T/C: 117 % of control
endpoint: median survival time, dose: 32.0 mg/kg/injection, schedule: Q01DX005 (ip), vehicle: water
  T/C: 152 % of control
endpoint: median survival time, dose: 32.0 mg/kg/injection, schedule: Q01DX009 (ip), vehicle: water
  T/C: 159 % of control and 176 % of control
endpoint: median survival time, dose: 32.0 mg/kg/injection, schedule: Q01DX009 (oral), vehicle: water
  T/C: 163 % of control
endpoint: median survival time, dose: 32.0 mg/kg/injection, schedule: Q03HX024 (ip), vehicle: water
  T/C: 184 % of control
endpoint: median survival time, dose: 32.0 mg/kg/injection, schedule: Q04DX003 (ip), vehicle: water
  T/C: 109 % of control
endpoint: median survival time, dose: 32.0 mg/kg/injection, schedule: Q#A X018 (ip), vehicle: water
  T/C: 195 % of control
endpoint: median survival time, dose: 44.5 mg/kg/injection, schedule: Q01DX005 (ip), vehicle: water
  T/C: 102 % of control
endpoint: median survival time, dose: 64.0 mg/kg/injection, schedule: Q01DX001 (ip), vehicle: water
  T/C: 110 % of control
endpoint: median survival time, dose: 64.0 mg/kg/injection, schedule: Q01DX001 (iv), vehicle: water
  T/C: 120 % of control
endpoint: median survival time, dose: 64.0 mg/kg/injection, schedule: Q01DX001 (oral), vehicle: water
  T/C: 111 % of control
endpoint: median survival time, dose: 64.0 mg/kg/injection, schedule: Q01DX005 (ip), vehicle: water
  T/C: 163 % of control
endpoint: median survival time, dose: 64.0 mg/kg/injection, schedule: Q01DX005 (iv), vehicle: water
  T/C: 151 % of control
endpoint: median survival time, dose: 64.0 mg/kg/injection, schedule: Q01DX005 (oral), vehicle: water
  T/C: 150 % of control
endpoint: median survival time, dose: 64.0 mg/kg/injection, schedule: Q01DX009 (oral), vehicle: water
  T/C: 188 % of control
endpoint: median survival time, dose: 64.0 mg/kg/injection, schedule: Q03HX024 (ip), vehicle: water
  T/C: 219 % of control
endpoint: median survival time, dose: 64.0 mg/kg/injection, schedule: Q04DX003 (ip), vehicle: water
  T/C: 114 % of control
endpoint: median survival time, dose: 64.0 mg/kg/injection, schedule: Q#A X018 (ip), vehicle: water
  T/C: 210 % of control
endpoint: median survival time, dose: 89.0 mg/kg/injection, schedule: Q01DX005 (ip), vehicle: water
  T/C: 94 % of control
endpoint: median survival time, dose: 93.75 mg/kg/injection, schedule: Q01DX005 (ip), vehicle: water
  T/C: 101 % of control
endpoint: median survival time, dose: 125.0 mg/kg/injection, schedule: Q01DX005 (ip), vehicle: water
  T/C: 168 % of control
endpoint: median survival time, dose: 128.0 mg/kg/injection, schedule: Q01DX001 (ip), vehicle: water
  T/C: 114 % of control
endpoint: median survival time, dose: 128.0 mg/kg/injection, schedule: Q01DX001 (oral), vehicle: water
  T/C: 123 % of control
endpoint: median survival time, dose: 128.0 mg/kg/injection, schedule: Q01DX005 (ip), vehicle: water
  T/C: 164 % of control
endpoint: median survival time, dose: 128.0 mg/kg/injection, schedule: Q01DX005 (iv), vehicle: water
  T/C: 166 % of control
endpoint: median survival time, dose: 128.0 mg/kg/injection, schedule: Q01DX005 (oral), vehicle: water
  T/C: 163 % of control
endpoint: median survival time, dose: 128.0 mg/kg/injection, schedule: Q01DX009 (oral), vehicle: water
  T/C: 217 % of control
endpoint: median survival time, dose: 128.0 mg/kg/injection, schedule: Q03HX024 (ip), vehicle: water
  T/C: 231 % of control
endpoint: median survival time, dose: 128.0 mg/kg/injection, schedule: Q04DX003 (ip), vehicle: water
  T/C: 118 % of control
endpoint: median survival time, dose: 128.0 mg/kg/injection, schedule: Q#A X018 (ip), vehicle: water
  T/C: 240 % of control
endpoint: median survival time, dose: 150.0 mg/kg/injection, schedule: Q01DX005 (ip), vehicle: water
  T/C: 157 % of control
endpoint: median survival time, dose: 178.0 mg/kg/injection, schedule: Q01DX005 (ip), vehicle: water
  T/C: 98 % of control
endpoint: median survival time, dose: 250.0 mg/kg/injection, schedule: Q01DX005 (ip), vehicle: water
  T/C: 158 % of control and 179 % of control
endpoint: median survival time, dose: 256.0 mg/kg/injection, schedule: Q01DX001 (ip), vehicle: water
  T/C: 117 % of control
endpoint: median survival time, dose: 256.0 mg/kg/injection, schedule: Q01DX001 (oral), vehicle: water
  T/C: 122 % of control
endpoint: median survival time, dose: 256.0 mg/kg/injection, schedule: Q01DX005 (ip), vehicle: water
  T/C: 183 % of control
endpoint: median survival time, dose: 256.0 mg/kg/injection, schedule: Q01DX005 (iv), vehicle: water
  T/C: 190 % of control
endpoint: median survival time, dose: 256.0 mg/kg/injection, schedule: Q01DX005 (oral), vehicle: water
  T/C: 188 % of control
endpoint: median survival time, dose: 256.0 mg/kg/injection, schedule: Q01DX009 (oral), vehicle: water
  T/C: 227 % of control
endpoint: median survival time, dose: 256.0 mg/kg/injection, schedule: Q03HX024 (ip), vehicle: water
  T/C: 246 % of control
endpoint: median survival time, dose: 256.0 mg/kg/injection, schedule: Q#A X018 (ip), vehicle: water
  T/C: 252 % of control
endpoint: median survival time, dose: 300.0 mg/kg/injection, schedule: Q01DX005 (ip), vehicle: water
  T/C: 166 % of control
endpoint: median survival time, dose: 356.0 mg/kg/injection, schedule: Q01DX005 (ip), vehicle: water
  T/C: 101 % of control
endpoint: median survival time, dose: 375.0 mg/kg/injection, schedule: Q01DX005 (ip), vehicle: water
  T/C: 92 % of control
endpoint: median survival time, dose: 500.0 mg/kg/injection, schedule: Q01DX005 (ip), vehicle: water
  T/C: 175 % of control and 201 % of control
endpoint: median survival time, dose: 512.0 mg/kg/injection, schedule: Q01DX005 (ip), vehicle: water
  T/C: 190 % of control
endpoint: median survival time, dose: 512.0 mg/kg/injection, schedule: Q01DX005 (iv), vehicle: water
  T/C: 217 % of control
endpoint: median survival time, dose: 512.0 mg/kg/injection, schedule: Q01DX005 (oral), vehicle: water
  T/C: 195 % of control
endpoint: median survival time, dose: 512.0 mg/kg/injection, schedule: Q01DX009 (oral), vehicle: water
  T/C: 154 % of control
endpoint: median survival time, dose: 512.0 mg/kg/injection, schedule: Q03HX024 (ip), vehicle: water
  T/C: 284 % of control
endpoint: median survival time, dose: 512.0 mg/kg/injection, schedule: Q04DX003 (ip), vehicle: water
  T/C: 180 % of control
endpoint: median survival time, dose: 512.0 mg/kg/injection, schedule: Q#A X018 (ip), vehicle: water
  T/C: 269 % of control
endpoint: median survival time, dose: 600.0 mg/kg/injection, schedule: Q01DX005 (ip), vehicle: water
  T/C: 188 % of control
endpoint: median survival time, dose: 1000.0 mg/kg/injection, schedule: Q01DX005 (ip), vehicle: water
  T/C: 188 % of control and 191 % of control
endpoint: median survival time, dose: 1024.0 mg/kg/injection, schedule: Q01DX005 (ip), vehicle: water
  T/C: 205 % of control
endpoint: median survival time, dose: 1024.0 mg/kg/injection, schedule: Q01DX005 (iv), vehicle: water
  T/C: 226 % of control
endpoint: median survival time, dose: 1024.0 mg/kg/injection, schedule: Q01DX005 (oral), vehicle: water
  T/C: 213 % of control
endpoint: median survival time, dose: 1024.0 mg/kg/injection, schedule: Q01DX009 (oral), vehicle: water
  T/C: 110 % of control
endpoint: median survival time, dose: 1024.0 mg/kg/injection, schedule: Q04DX003 (ip), vehicle: water
  T/C: 191 % of control
endpoint: median survival time, dose: 2048.0 mg/kg/injection, schedule: Q01DX001 (oral), vehicle: water
  T/C: 155 % of control
endpoint: median survival time, dose: 2048.0 mg/kg/injection, schedule: Q01DX005 (oral), vehicle: water
  T/C: 98 % of control
endpoint: median survival time, dose: 2048.0 mg/kg/injection, schedule: Q01DX009 (ip), vehicle: water
  T/C: 109 % of control
endpoint: median survival time, dose: 2048.0 mg/kg/injection, schedule: Q04DX003 (ip), vehicle: water
  T/C: 223 % of control
